Laboratory results reported in patent US20260167742A1, “METHOD FOR TREATING GASTRIC CANCER BY COMBINING ANTI-HER2 ANTIBODY AND CHEMOTHERAPEUTIC AGENT, AND USE” (SHANGHAI HENLIUS BIOTECH, INC., priority 2023, published 2026).

Experiments:
Type in all cases: cell-based, human
[1] = tested on: gastric cancer cells NCI-N87; assay: HER2 internalization (endocytosis) assay, pHrodo Green staining, flow cytometry; conditions: 10 μg/mL
Description: (§1) A HER2 internalization assay was performed using pHrodoiFL Green STP ester amine reactive dye (P35369, Invitrogen). […] After a short wash with a wash buffer to remove unbound antibodies, one group of cells was placed on ice for freezing to stop internalization, and the remaining cells were placed in a 37° C. incubator for further incubation. After the co-incubation with the antibody, the cells were fixed with a fixation buffer (420801, Biolegend) for 30 min. Finally, all stained cells were washed with a staining buffer and analyzed on the CytoFLEX LX flow cytometer (Beckman Coulter, USA).

[2] = tested on: gastric cancer cells SNU216; assay: as above; conditions: 10 μg/mL
Description: as §1

NCI-N87 cells = assay: Apoptosis assay (Caspase-Glo 3/7); conditions: 24 h treatment
Description: The apoptosis was assessed by measuring the activity of caspases 3/7 in gastric cancer NCI-N87 cells using the Caspase-Glo®3/7 Assay system. A xenograft human gastric cancer NCI-N87 model and a human gastric cancer PDX model were treated with the antibodies at given doses. All data are presented as mean±SEM. The p values were calculated using Student's t test. ** denotes p<0.01, and * denotes p<0.05.
The apoptosis was assessed by measuring the activity of caspases 3/7 in NCI-N87 cells using the Caspase-Glo®3/7 Assay (G8093, Promega) system. The cells were seeded in a 96-well plate (CLS3799, Corning) at about 1.5×10^4 cells/well and incubated overnight. The original medium was replaced with a drug-containing culture medium of 100 μL, and the cells were treated for 24 h. After an incubation at room temperature for 30 min, 100 μL of Caspase-Glo 3/7 reagent was added. The plate was incubated in the dark for 30 min and detected using Spark (Tecan, Switzerland) after gentle shaking.

Substance: pertuzumab: antibody comprising heavy chain SEQ ID NO: 13 and light chain SEQ ID NO: 14 [reference compound]
- HER2 internalization (endocytosis) [1]: weak endocytosis
- HER2 internalization (endocytosis) [2]: weak endocytosis
- apoptosis (caspases 3/7 activity) (NCI-N87 cells): did not significantly induce the apoptosis of NCI-N87 cells
